Tested on: 885512-296-R-J2-PDC complex spheroid growth, % test/control
Assay: Anticancer human tumor 885512-296-R-J2-PDC patient-derived breast carcinoma cell line growth inhibition [AhR]
Conditions: for IC50: curve of first compound; for viability, T/C: stronger effect = lower value
Summary of the method: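 Agents were dosed in half-log steps down from roughly clinical Cmax, or from 10 microM where Cmax was unknown, alone and with AhR antagonists. Read-out: percent test/control growth of tumor spheroids containing HUVEC and MSC stromal cells.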

[1] = second compound 0.1 µM, first compound 0.0316 µM
[2] = second compound 0.1 µM, first compound 0.1 µM
[3] = second compound 0.316 µM, first compound 0.0316 µM
[4] = second compound 0.316 µM, first compound 0.1 µM
[5] = second compound 1 µM, first compound 0.0316 µM
[6] = second compound 1 µM, first compound 0.1 µM
[7] = second compound 3.16 µM, first compound 0.0316 µM
[8] = second compound 3.16 µM, first compound 0.1 µM
[9] = second compound 10 µM, first compound 0.0316 µM
[10] = second compound 10 µM, first compound 0.1 µM
[11] = second compound 0.1 µM, first compound 0.316 µM
[12] = second compound 0.1 µM, first compound 1 µM
[13] = second compound 0.1 µM, first compound 3.16 µM
[14] = second compound 0.1 µM, first compound 10 µM
[15] = second compound 0.316 µM, first compound 0.316 µM
[16] = second compound 0.316 µM, first compound 1 µM
[17] = second compound 0.316 µM, first compound 3.16 µM
[18] = second compound 0.316 µM, first compound 10 µM
[19] = second compound 1 µM, first compound 0.316 µM
[20] = second compound 1 µM, first compound 1 µM
[21] = second compound 1 µM, first compound 3.16 µM
[22] = second compound 1 µM, first compound 10 µM
[23] = second compound 3.16 µM, first compound 0.316 µM
[24] = second compound 3.16 µM, first compound 1 µM
[25] = second compound 3.16 µM, first compound 3.16 µM
[26] = second compound 3.16 µM, first compound 10 µM
[27] = second compound 10 µM, first compound 0.316 µM
[28] = second compound 10 µM, first compound 1 µM
[29] = second compound 10 µM, first compound 3.16 µM
[30] = second compound 10 µM, first compound 10 µM
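Further: spheroids exposed to compounds for seven days.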

`CCN(c1cc(-c2ccc(CN3CCOCC3)cc2)cc(C(=O)NCc2c(C)cc(C)[nH]c2=O)c1C)C1CCOCC1` + Cc1cncc(-c2nc(NCCc3c[nH]c4ccccc34)c3ncn(C(C)C)c3n2)c1 gave an IC50 (second compound 0.1 µM) greater than 3 µM, an IC50 (second compound 0.316 µM) greater than 3 µM and an IC50 (second compound 1 µM) greater than 3 µM. The IC50 (second compound 3.16 µM) was greater than 3 µM, the IC50 (second compound 10 µM) was less than 0.00949 µM and the viability, T/C (second compound 0.1 µM, first compound 0.00949 µM) was 98.8%. The viability, T/C (second compound 0.1 µM, first compound 0.03 µM) was 104%, the viability, T/C (second compound 0.1 µM, first compound 0.0949 µM) was 91.3% and the viability, T/C (second compound 0.1 µM, first compound 0.3 µM) was 87.8%. For the same compound, the viability, T/C (second compound 0.1 µM, first compound 0.949 µM) was 94.8%, the viability, T/C (second compound 0.1 µM, first compound 3 µM) was 83.3% and the viability, T/C (second compound 0.316 µM, first compound 0.00949 µM) was 102%. The viability, T/C (second compound 0.316 µM, first compound 0.03 µM) was 105%, the viability, T/C (second compound 0.316 µM, first compound 0.0949 µM) was 98% and the viability, T/C (second compound 0.316 µM, first compound 0.3 µM) was 94.9%. For the same compound, the viability, T/C (second compound 0.316 µM, first compound 0.949 µM) was 88.5%, the viability, T/C (second compound 0.316 µM, first compound 3 µM) was 74.8% and the viability, T/C (second compound 1 µM, first compound 0.00949 µM) was 91.4%. It also gave a viability, T/C (second compound 1 µM, first compound 0.03 µM) of 93.5%, a viability, T/C (second compound 1 µM, first compound 0.0949 µM) of 85.7% and a viability, T/C (second compound 1 µM, first compound 0.3 µM) of 73.6%. It also gave a viability, T/C (second compound 1 µM, first compound 0.949 µM) of 72.8%, a viability, T/C (second compound 1 µM, first compound 3 µM) of 80.1% and a viability, T/C (second compound 3.16 µM, first compound 0.00949 µM) of 58.6%. It also gave a viability, T/C (second compound 3.16 µM, first compound 0.03 µM) of 62.1%, a viability, T/C (second compound 3.16 µM, first compound 0.0949 µM) of 59.9% and a viability, T/C (second compound 3.16 µM, first compound 0.3 µM) of 58.8%. The viability, T/C (second compound 3.16 µM, first compound 0.949 µM) was 53.5%, the viability, T/C (second compound 3.16 µM, first compound 3 µM) was 54.8% and the viability, T/C (second compound 10 µM, first compound 0.00949 µM) was 21.8%. It also gave a viability, T/C (second compound 10 µM, first compound 0.03 µM) of 24.6%, a viability, T/C (second compound 10 µM, first compound 0.0949 µM) of 24.4% and a viability, T/C (second compound 10 µM, first compound 0.3 µM) of 18.8%. The viability, T/C (second compound 10 µM, first compound 0.949 µM) was 13% and the viability, T/C (second compound 10 µM, first compound 3 µM) was 8.18%.

Compound `Cn1ncnc1C1c2n[nH]c(=O)c3cc(F)cc(c23)NC1c1ccc(F)cc1` (stereo not given) + Cc1ccccc1N=Nc1ccc(NC(=O)c2ccnn2C)c(C)c1 has an IC50 (second compound 0.1 µM) of 0.0913 µM, an IC50 (second compound 0.316 µM) greater than 0.1 µM and an IC50 (second compound 1 µM) greater than 0.1 µM. For the same compound, the IC50 (second compound 3.16 µM) was greater than 0.1 µM, the IC50 (second compound 10 µM) was less than 0.000316 µM and the viability, T/C (second compound 0.1 µM, first compound 0.000316 µM) was 85.6%. The viability, T/C (second compound 0.1 µM, first compound 0.001 µM) was 99.2%, the viability, T/C (second compound 0.1 µM, first compound 0.00316 µM) was 89.9% and the viability, T/C (second compound 0.1 µM, first compound 0.01 µM) was 93%. It also gave a viability, T/C [1] of 68.7%, a viability, T/C [2] of 48.4% and a viability, T/C (second compound 0.316 µM, first compound 0.000316 µM) of 110%. The viability, T/C (second compound 0.316 µM, first compound 0.001 µM) was 94.5%, the viability, T/C (second compound 0.316 µM, first compound 0.00316 µM) was 86% and the viability, T/C (second compound 0.316 µM, first compound 0.01 µM) was 87.7%. It also gave a viability, T/C [3] of 76.3%, a viability, T/C [4] of 54.9% and a viability, T/C (second compound 1 µM, first compound 0.000316 µM) of 98.5%. The viability, T/C (second compound 1 µM, first compound 0.001 µM) was 82.9%, the viability, T/C (second compound 1 µM, first compound 0.00316 µM) was 96.6% and the viability, T/C (second compound 1 µM, first compound 0.01 µM) was 83.9%. For the same compound, the viability, T/C [5] was 67.5%, the viability, T/C [6] was 53.8% and the viability, T/C (second compound 3.16 µM, first compound 0.000316 µM) was 77.6%. For the same compound, the viability, T/C (second compound 3.16 µM, first compound 0.001 µM) was 87.5%, the viability, T/C (second compound 3.16 µM, first compound 0.00316 µM) was 93% and the viability, T/C (second compound 3.16 µM, first compound 0.01 µM) was 83.5%. It also gave a viability, T/C [7] of 67.4%, a viability, T/C [8] of 52.1% and a viability, T/C (second compound 10 µM, first compound 0.000316 µM) of 50.1%. For the same compound, the viability, T/C (second compound 10 µM, first compound 0.001 µM) was 49.9%, the viability, T/C (second compound 10 µM, first compound 0.00316 µM) was 46.5% and the viability, T/C (second compound 10 µM, first compound 0.01 µM) was 47.2%. The viability, T/C [9] was 50.2% and the viability, T/C [10] was 44.2%.

Compound `Nc1ccn(C2OC(CO)C(O)C2(F)F)c(=O)n1` (stereo not given) + Cc1cncc(-c2nc(NCCc3c[nH]c4ccccc34)c3ncn(C(C)C)c3n2)c1 has an IC50 (second compound 0.1 µM) of less than 0.0316 µM, an IC50 (second compound 0.316 µM) of less than 0.0316 µM and an IC50 (second compound 1 µM) of less than 0.0316 µM. For the same compound, the IC50 (second compound 3.16 µM) was less than 0.0316 µM, the IC50 (second compound 10 µM) was less than 0.0316 µM and the viability, T/C [1] was 3.33%. For the same compound, the viability, T/C [2] was 4.05%, the viability, T/C [11] was 4.69% and the viability, T/C [12] was 4.03%. The viability, T/C [13] was 3.99%, the viability, T/C [14] was 4.46% and the viability, T/C [3] was 3.3%. It also gave a viability, T/C [4] of 3.9%, a viability, T/C [15] of 3.76% and a viability, T/C [16] of 4.54%. The viability, T/C [17] was 4.43%, the viability, T/C [18] was 3.99% and the viability, T/C [5] was 3.48%. The viability, T/C [6] was 3.69%, the viability, T/C [19] was 3.49% and the viability, T/C [20] was 4.33%. The viability, T/C [21] was 3.22%, the viability, T/C [22] was 3.99% and the viability, T/C [7] was 5.82%. For the same compound, the viability, T/C [8] was 4.2%, the viability, T/C [23] was 4.2% and the viability, T/C [24] was 4.17%. It also gave a viability, T/C [25] of 4.29%, a viability, T/C [26] of 3.8% and a viability, T/C [9] of 8.48%. It also gave a viability, T/C [10] of 8.12%, a viability, T/C [27] of 3.15% and a viability, T/C [28] of 2.99%. It also gave a viability, T/C [29] of 2.64% and a viability, T/C [30] of 2.75%.

`COc1ccc([C@@H](O)c2cc(-c3ncnc4cc(N5CCOCC5)ccc34)c(F)cc2Cl)nn1` + Cc1ccccc1N=Nc1ccc(NC(=O)c2ccnn2C)c(C)c1 was tested, and the IC50 (second compound 0.1 µM) was 8.29 µM, the IC50 (second compound 0.316 µM) was 7.98 µM and the IC50 (second compound 1 µM) was 6.55 µM. It also gave an IC50 (second compound 3.16 µM) of 5.96 µM, an IC50 (second compound 10 µM) of less than 0.0316 µM and a viability, T/C [1] of 107%. The viability, T/C [2] was 106%, the viability, T/C [11] was 91% and the viability, T/C [12] was 80%. The viability, T/C [13] was 74%, the viability, T/C [14] was 44.3% and the viability, T/C [3] was 92.9%. It also gave a viability, T/C [4] of 117%, a viability, T/C [15] of 110% and a viability, T/C [16] of 95.7%. It also gave a viability, T/C [17] of 71.4%, a viability, T/C [18] of 44.8% and a viability, T/C [5] of 112%. For the same compound, the viability, T/C [6] was 96%, the viability, T/C [19] was 100% and the viability, T/C [20] was 78.9%. The viability, T/C [21] was 60%, the viability, T/C [22] was 44.2% and the viability, T/C [7] was 85.4%. For the same compound, the viability, T/C [8] was 92.9%, the viability, T/C [23] was 83.2% and the viability, T/C [24] was 69%. The viability, T/C [25] was 66.4%, the viability, T/C [26] was 38.9% and the viability, T/C [9] was 46.2%. It also gave a viability, T/C [10] of 49.9%, a viability, T/C [27] of 47% and a viability, T/C [28] of 48.3%. It also gave a viability, T/C [29] of 38.9% and a viability, T/C [30] of 26.2%.

`COc1ccc([C@@H](O)c2cc(-c3ncnc4cc(N5CCOCC5)ccc34)c(F)cc2Cl)nn1` + Cc1cncc(-c2nc(NCCc3c[nH]c4ccccc34)c3ncn(C(C)C)c3n2)c1 showed an IC50 (second compound 0.1 µM) greater than 10 µM, an IC50 (second compound 0.316 µM) of 8.02 µM and an IC50 (second compound 1 µM) of 6.1 µM. The IC50 (second compound 3.16 µM) was 0.933 µM, the IC50 (second compound 10 µM) was less than 0.0316 µM and the viability, T/C [1] was 101%. It also gave a viability, T/C [2] of 93.2%, a viability, T/C [11] of 87.4% and a viability, T/C [12] of 87.3%. The viability, T/C [13] was 63.1%, the viability, T/C [14] was 51.7% and the viability, T/C [3] was 104%. For the same compound, the viability, T/C [4] was 89.7%, the viability, T/C [15] was 81.9% and the viability, T/C [16] was 86.5%. The viability, T/C [17] was 65.9%, the viability, T/C [18] was 45.1% and the viability, T/C [5] was 90.9%. It also gave a viability, T/C [6] of 78.4%, a viability, T/C [19] of 86.8% and a viability, T/C [20] of 77.7%. For the same compound, the viability, T/C [21] was 63.2%, the viability, T/C [22] was 39.5% and the viability, T/C [7] was 55.2%. For the same compound, the viability, T/C [8] was 55.5%, the viability, T/C [23] was 48.2% and the viability, T/C [24] was 53.3%. The viability, T/C [25] was 42.6%, the viability, T/C [26] was 32.4% and the viability, T/C [9] was 18.1%. The viability, T/C [10] was 15.5%, the viability, T/C [27] was 16.1% and the viability, T/C [28] was 13.2%. The viability, T/C [29] was 11.3% and the viability, T/C [30] was 9.01%.
